Assay results reported in ChEMBL document CHEMBL1137709, “Enhanced activity of fluorinated quaternary ammonium surfactants against Pseudomonas aeruginosa” (Eur J Med Chem, 2009).

What was measured:
[1] = Critical micelle concentration in aqueous potassium hydroxide assessed as breakpoint of conductivity by conductimeter; type: physicochemical; details: buffer
Pseudomonas aeruginosa = experiment: Antibacterial activity against Pseudomonas aeruginosa CIP A22 after 24 hrs; type: functional; details: CIP A22, 24 h

## C[N+](C)(CCCCCCCCCC[N+](C)(C)CC(=O)NCCC(F)(F)C(F)(F)C(F)(F)C(F)(F)C(F)(F)C(F)(F)F)CC(=O)NCCC(F)(F)C(F)(F)C(F)(F)C(F)(F)C(F)(F)C(F)(F)F.[Br-].[Br-]
[1]
  CMC: 0.296 mM
Pseudomonas aeruginosa
  MIC: 2.83 µM

## C[N+](C)(CCCC[N+](C)(C)CSCCC(F)(F)C(F)(F)C(F)(F)C(F)(F)C(F)(F)C(F)(F)F)CSCCC(F)(F)C(F)(F)C(F)(F)C(F)(F)C(F)(F)C(F)(F)F.[Br-].[Br-]
[1]
  solubility: Insoluble
Pseudomonas aeruginosa
  MIC: 4.59 µM

## C[N+](C)(CCCC[N+](C)(C)CC(=O)NCCC(F)(F)C(F)(F)C(F)(F)C(F)(F)C(F)(F)C(F)(F)F)CC(=O)NCCC(F)(F)C(F)(F)C(F)(F)C(F)(F)C(F)(F)C(F)(F)F.[Br-].[Br-]
[1]
  CMC: 0.758 mM
Pseudomonas aeruginosa
  MIC: 5.94 µM

## O=C(C[N+]12CC[N+](CC(=O)NCCC(F)(F)C(F)(F)C(F)(F)C(F)(F)C(F)(F)C(F)(F)F)(CC1)CC2)NCCC(F)(F)C(F)(F)C(F)(F)C(F)(F)C(F)(F)C(F)(F)F.[Br-].[Br-]
[1]
  CMC: 0.466 mM
Pseudomonas aeruginosa
  MIC: 5.82 µM

## CCCCCCCCNC(=O)C[N+](C)(C)CCCC[N+](C)(C)CC(=O)NCCCCCCCC
Pseudomonas aeruginosa
  MIC: 51.2 µM

## C[N+](C)(CCCC[N+](C)(C)CCC(F)(F)C(F)(F)C(F)(F)C(F)(F)C(F)(F)C(F)(F)F)CCC(F)(F)C(F)(F)C(F)(F)C(F)(F)C(F)(F)C(F)(F)F.[Br-].[Br-]
[1]
  CMC: 2.39 mM
Pseudomonas aeruginosa
  MIC: 7.31 µM

## CCCCCCCCCCCC[N+](C)(C)CCOc1ccccc1 [DOMIPHEN BROMIDE]
Pseudomonas aeruginosa
  MIC: 40.8 µM

## C[N+](C)(CCCC[N+](C)(C)CCOC(=O)NCCC(F)(F)C(F)(F)C(F)(F)C(F)(F)C(F)(F)C(F)(F)F)CCOC(=O)NCCC(F)(F)C(F)(F)C(F)(F)C(F)(F)C(F)(F)C(F)(F)F.[Br-].[Br-]
[1]
  CMC: 0.54 mM
Pseudomonas aeruginosa
  MIC: 3.69 µM

## C[N+](C)(C/C=C/C[N+](C)(C)CC(=O)NCCC(F)(F)C(F)(F)C(F)(F)C(F)(F)C(F)(F)C(F)(F)F)CC(=O)NCCC(F)(F)C(F)(F)C(F)(F)C(F)(F)C(F)(F)C(F)(F)F.[Br-].[Br-]
[1]
  CMC: 0.559 mM
Pseudomonas aeruginosa
  MIC: 3.67 µM

## C[N+](C)(CCCCCC[N+](C)(C)CC(=O)NCCC(F)(F)C(F)(F)C(F)(F)C(F)(F)C(F)(F)C(F)(F)F)CC(=O)NCCC(F)(F)C(F)(F)C(F)(F)C(F)(F)C(F)(F)C(F)(F)F.[Br-].[Br-]
[1]
  CMC: 0.588 mM
Pseudomonas aeruginosa
  MIC: 5.52 µM

## C[N+](C)(CC(=O)NCCC(F)(F)C(F)(F)C(F)(F)C(F)(F)C(F)(F)C(F)(F)F)CC(O)C[N+](C)(C)CC(=O)NCCC(F)(F)C(F)(F)C(F)(F)C(F)(F)C(F)(F)C(F)(F)F.[Br-].[Br-]
[1]
  CMC: 0.541 mM
Pseudomonas aeruginosa
  MIC: 9.25 µM

## C[N+](C)(CCCCCCCC[N+](C)(C)CC(=O)NCCC(F)(F)C(F)(F)C(F)(F)C(F)(F)C(F)(F)C(F)(F)F)CC(=O)NCCC(F)(F)C(F)(F)C(F)(F)C(F)(F)C(F)(F)C(F)(F)F.[Br-].[Br-]
[1]
  CMC: 0.361 mM
Pseudomonas aeruginosa
  MIC: 2.89 µM

## C[N+](C)(CCCC[N+](C)(C)CCNC(=O)CCC(F)(F)C(F)(F)C(F)(F)C(F)(F)C(F)(F)C(F)(F)F)CCNC(=O)CCC(F)(F)C(F)(F)C(F)(F)C(F)(F)C(F)(F)C(F)(F)F.[Br-].[Br-]
[1]
  CMC: 0.547 mM
Pseudomonas aeruginosa
  MIC: 1.88 µM

## C[N+](C)(CCCC[N+](C)(C)CCNC(=O)NCCC(F)(F)C(F)(F)C(F)(F)C(F)(F)C(F)(F)C(F)(F)F)CCNC(=O)NCCC(F)(F)C(F)(F)C(F)(F)C(F)(F)C(F)(F)C(F)(F)F.[Br-].[Br-]
[1]
  CMC: 0.523 mM
Pseudomonas aeruginosa
  MIC: 5.38 µM

## C[N+](C)(CCC[N+](C)(C)CC(=O)NCCC(F)(F)C(F)(F)C(F)(F)C(F)(F)C(F)(F)C(F)(F)F)CC(=O)NCCC(F)(F)C(F)(F)C(F)(F)C(F)(F)C(F)(F)C(F)(F)F.[Br-].[Br-]
[1]
  CMC: 0.546 mM
Pseudomonas aeruginosa
  MIC: 5.19 µM

## C[N+](C)(CCCCCCCCCCCC[N+](C)(C)CC(=O)NCCC(F)(F)C(F)(F)C(F)(F)C(F)(F)C(F)(F)C(F)(F)F)CC(=O)NCCC(F)(F)C(F)(F)C(F)(F)C(F)(F)C(F)(F)C(F)(F)F.[Br-].[Br-]
[1]
  CMC: 0.269 mM
Pseudomonas aeruginosa
  MIC: 2.76 µM

## C[N+](C)(CCSSCC[N+](C)(C)CC(=O)NCCC(F)(F)C(F)(F)C(F)(F)C(F)(F)C(F)(F)C(F)(F)F)CC(=O)NCCC(F)(F)C(F)(F)C(F)(F)C(F)(F)C(F)(F)C(F)(F)F.[Br-].[Br-]
[1]
  CMC: 0.451 mM
Pseudomonas aeruginosa
  MIC: 4.95 µM

## C[N+](C)(CC[N+](C)(C)CC(=O)NCCC(F)(F)C(F)(F)C(F)(F)C(F)(F)C(F)(F)C(F)(F)F)CC(=O)NCCC(F)(F)C(F)(F)C(F)(F)C(F)(F)C(F)(F)C(F)(F)F.[Br-].[Br-]
[1]
  CMC: 0.591 mM
Pseudomonas aeruginosa
  MIC: 5.8 µM
